TGI and GI50 data for 16 molecules are collected here from PubChem BioAssay (NCI).

Where “and” joins values, the source holds several entries; their conditions need not be identical. Identical values can stand only once.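 Five concentrations, 48 hours, 96-well plates. GI50 is the concentration that inhibits growth by half. TGI marks complete inhibition of growth.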 Bounds are passed on as bounds.

Among the test systems are KM12 colon; U251 CNS; M14 melanoma; NCI-H226 lung; SN12C renal; SNB-78 CNS; KM20L2 colon; COLO 205 colon; EKVX NSCLC; MALME-3M melanoma.
Test in all cases: inhibition of tumour cell growth, NCI panel, 48 h

`O=c1c2ccccc2c(=O)c2c1cc(Cl)c1[nH]c3c([nH]c12)c(Cl)cc1c(=O)c2ccccc2c(=O)c13`: the TGI with KM12 colon, in the assay on U251 CNS, in the assay with M14 melanoma, in the assay on NCI-H226 lung, in the assay on SN12C renal and in the assay with SNB-78 CNS was greater than 100 µM in each case. In addition, the TGI in the assay on KM20L2 colon, in the assay with COLO 205 colon, in the assay with EKVX NSCLC and in the assay with MALME-3M melanoma was greater than 100 µM each time.

Regarding `N#CCC(=O)N/N=C1\C(=O)N(c2ccc(Cl)cc2)C(=O)C(=O)C1c1nc2ccccc2o1` (stereo not drawn), the TGI with KM12 colon, with U251 CNS, with M14 melanoma, in the assay with NCI-H226 lung, in the assay on SN12C renal and with SNB-78 CNS was greater than 100 µM in each case. Moreover, the TGI in the assay with KM20L2 colon, with COLO 205 colon, in the assay with EKVX NSCLC and in the assay with MALME-3M melanoma was greater than 100 µM throughout.

With `Cc1cc(NS(=O)(=O)c2ccc(NC(=O)c3cccc4c(Nc5ccc(S(=O)(=O)Nc6cc(C)on6)cc5)c5ccccc5nc34)cc2)no1`, the TGI in the assay on KM12 colon was greater than 100 µM; with U251 CNS, 86.9 µM; in the assay on M14 melanoma, greater than 100 µM; in the assay on SN12C renal it was greater than 100 µM; in the assay with SNB-78 CNS, greater than 100 µM; in the assay with KM20L2 colon, greater than 100 µM. In addition, the TGI in the assay with COLO 205 colon, in the assay with EKVX NSCLC and in the assay with MALME-3M melanoma was greater than 100 µM throughout.

Regarding `COc1cccc(NC(=O)CC(=O)N2NC(C)C(N=Nc3cccc(C(=O)O)c3)C2=O)c1` (stereo not drawn), the TGI with KM12 colon, with U251 CNS, with M14 melanoma, with NCI-H226 lung, in the assay with SN12C renal and with SNB-78 CNS was greater than 100 µM each time. Moreover, the TGI with KM20L2 colon, in the assay with COLO 205 colon, in the assay on EKVX NSCLC and in the assay on MALME-3M melanoma was greater than 100 µM each time.

For the molecule `O=C1/C(=C/c2ccccc2)CCC/C1=C\c1ccccc1`, the GI50 with KM12 colon is 3.54 µM and 2.11 µM; in the assay with U251 CNS, 3.33 µM; with M14 melanoma, 2.96 µM; in the assay with NCI-H226 lung it was 7.83 µM and 12.5 µM; in the assay with SN12C renal it was 7.33 µM; with COLO 205 colon it was 6.31 µM and 15.1 µM. For the same molecule, the GI50 with EKVX NSCLC is 7.8 µM and 15.8 µM; in the assay with MALME-3M melanoma it was 6.54 µM and 21 µM. Moreover, the TGI in the assay on KM12 colon was 7.81 µM and 5.54 µM and 4.26 µM; with U251 CNS, 11.5 µM and 14.8 µM and 12.9 µM; in the assay on M14 melanoma, 12.9 µM and 19 µM and 7.88 µM; in the assay with NCI-H226 lung, 13.8 µM and 35.1 µM and 33 µM; in the assay with SN12C renal it was 12.6 µM and 32.8 µM and 34.9 µM; in the assay on SNB-78 CNS, greater than 87.9 µM. The TGI was 22.2 µM in the assay with KM20L2 colon; 11.5 µM and 32.7 µM and 35.2 µM in the assay with COLO 205 colon; 14.8 µM and 38.2 µM and 39.1 µM with EKVX NSCLC; 11.9 µM and 33.3 µM and 59.7 µM with MALME-3M melanoma.

Regarding `NCC(NC(=O)OCc1ccccc1)C(=O)O` (stereo not drawn), the TGI in the assay on KM12 colon, in the assay on U251 CNS, with M14 melanoma, in the assay on NCI-H226 lung, with SN12C renal and in the assay on SNB-78 CNS was greater than 50 µM throughout. Moreover, the TGI in the assay on KM20L2 colon, in the assay with COLO 205 colon, in the assay on EKVX NSCLC and with MALME-3M melanoma was greater than 50 µM throughout.

For `Cc1cc(C(=O)N2CCN(Cc3ccccc3)CC2)c(C)o1`, the TGI in the assay with KM12 colon, in the assay with U251 CNS, in the assay with M14 melanoma, in the assay on SN12C renal, with SNB-78 CNS and in the assay on KM20L2 colon was greater than 100 µM throughout. The molecule also yielded a TGI in the assay on EKVX NSCLC greater than 100 µM.

For `Cc1cc(C)cc(Sc2c([N+](=O)[O-])ncn2C)c1`, the TGI stood at 53.8 µM in the assay with KM12 colon; 36.7 µM with U251 CNS; 27.6 µM in the assay on M14 melanoma; 22 µM in the assay on NCI-H226 lung; 31.8 µM in the assay with SN12C renal; 58.9 µM in the assay on SNB-78 CNS. For the same molecule, the TGI with KM20L2 colon is greater than 100 µM; with COLO 205 colon, 31.8 µM; in the assay with EKVX NSCLC, greater than 100 µM; in the assay with MALME-3M melanoma, 25.3 µM.

As to `CCC[CH2][Sn]([CH2]CCC)([O]C(=O)c1nccnc1N)[O]C(=O)c1nccnc1N`, the GI50 in the assay with KM12 colon is 1.42 µM; in the assay with U251 CNS it was 0.478 µM; with M14 melanoma, 1.23 µM; in the assay with NCI-H226 lung, 1.33 µM; in the assay on SN12C renal it was 0.791 µM; with SNB-78 CNS, 0.388 µM. The GI50 with KM20L2 colon was 1.59 µM; in the assay on COLO 205 colon, 0.899 µM; in the assay with EKVX NSCLC, 1.02 µM; with MALME-3M melanoma it was 0.57 µM. The TGI with KM12 colon was determined as 2.74 µM; in the assay with U251 CNS, 1.65 µM; with M14 melanoma it was 2.49 µM; in the assay on NCI-H226 lung, 2.63 µM; in the assay on SN12C renal it was 2.04 µM; in the assay with SNB-78 CNS it was 1.57 µM. In addition, the TGI in the assay on KM20L2 colon worked out at 2.95 µM; with COLO 205 colon, 2.1 µM; with EKVX NSCLC, 2.18 µM; with MALME-3M melanoma it was 2.04 µM.

As to `O=C(O)C1CCCCN1C(=O)c1ccccc1` (stereo not drawn), the TGI in the assay with KM12 colon, in the assay on U251 CNS, in the assay on M14 melanoma, in the assay with SN12C renal, in the assay with SNB-78 CNS and in the assay on KM20L2 colon was greater than 100 µM in each case. The TGI in the assay with COLO 205 colon, with EKVX NSCLC and in the assay on MALME-3M melanoma was greater than 100 µM throughout.

As to `C=C(CS(=O)(=O)c1ccccc1)[P+](c1ccccc1)(c1ccccc1)c1ccccc1`, the TGI was 29 µM in the assay on KM12 colon; 39.4 µM in the assay on M14 melanoma; 36.7 µM in the assay with NCI-H226 lung; 32.4 µM with SN12C renal; greater than 100 µM with SNB-78 CNS; 32.8 µM with KM20L2 colon. Besides, the TGI is greater than 100 µM with EKVX NSCLC and 38.3 µM with MALME-3M melanoma.

As for `O=C(O)CCC1(Br)CCCCC(Br)C1=O` (stereo not drawn), the TGI in the assay on U251 CNS, with M14 melanoma, in the assay on NCI-H226 lung, in the assay on SN12C renal, in the assay with SNB-78 CNS and in the assay with KM20L2 colon was greater than 100 µM in each case. Besides, the TGI with COLO 205 colon, in the assay with EKVX NSCLC and with MALME-3M melanoma was greater than 100 µM throughout.

As for `C/C(=N/NC(=O)C(N)=O)C(CC(C(=O)Nc1ccccc1C)/C(C)=N\NC(=O)C(N)=O)C(=O)Nc1ccccc1C` (stereo not drawn), the TGI in the assay on KM12 colon, in the assay on U251 CNS, with M14 melanoma, with NCI-H226 lung, in the assay with SN12C renal and in the assay with SNB-78 CNS was greater than 100 µM throughout. Also, the TGI with KM20L2 colon, with COLO 205 colon, in the assay with EKVX NSCLC and with MALME-3M melanoma was greater than 100 µM in each case.

Consider `CC(C)(C)[Si](C)(C)O/N=C\c1ccc(O[Si](C)(C)C(C)(C)C)cc1`, for which the TGI was greater than 100 µM in the assay on KM12 colon; 61.7 µM with U251 CNS; greater than 100 µM with M14 melanoma; greater than 100 µM in the assay with SN12C renal; greater than 100 µM in the assay on SNB-78 CNS; greater than 100 µM in the assay on KM20L2 colon. Also, the TGI in the assay with COLO 205 colon, with EKVX NSCLC and with MALME-3M melanoma was greater than 100 µM each time.

Consider `C=C1Oc2nc3ccccc3c(=O)n2C1(C)C`, for which the TGI with KM12 colon is greater than 10 µM; in the assay with U251 CNS, greater than 100 µM; in the assay with M14 melanoma it was greater than 100 µM; with NCI-H226 lung, greater than 100 µM; in the assay on SN12C renal it was greater than 100 µM; in the assay with SNB-78 CNS, greater than 100 µM. Also, the TGI in the assay on KM20L2 colon, in the assay with COLO 205 colon, in the assay with EKVX NSCLC and in the assay with MALME-3M melanoma was greater than 100 µM each time.

For `CC(C)c1cccc(C(C)C)c1NC(=O)C(=O)C(C(=O)c1ccc2ccccc2c1)C1OC(=O)c2ccccc21` (stereo not drawn), the TGI with KM12 colon was greater than 100 µM; in the assay with U251 CNS, greater than 100 µM; in the assay on M14 melanoma, greater than 100 µM; with NCI-H226 lung it was 81.5 µM; in the assay with SN12C renal, greater than 100 µM; in the assay with SNB-78 CNS it was greater than 100 µM. For the same molecule, the TGI in the assay on COLO 205 colon, in the assay with EKVX NSCLC and in the assay on MALME-3M melanoma was greater than 100 µM in each case.
